The structures appear in SMILES notation.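 Five compound concentrations were applied to cells in 96-well plates for 48 hours; endpoints were derived by simple linear interpolation of the resulting dose-response curve. GI50: concentration for 50% inhibition of growth. At the TGI there is no net growth.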 Where only a bound is given, the exact number is not on record here.

Holding throughout (test): DTP human tumour cell line panel, 48 h
The subject of experiment [1] is NCI-H522 lung.
Experiment [2] concerns PC-3 prostate.
In experiment [3] the test system is KM12 colon.
For experiment [4], the system named is SW-620 colon.
For experiment [5], the system named is OVCAR-3 ovarian.
Experiment [6] relates to T-47D breast.
Experiment [7] relates to MDA-MB-435.
Experiment [8] relates to MALME-3M melanoma.
Experiment [9] concerns NCI-H460 lung.
Experiment [10] has as its system SK-MEL-2 melanoma.

Turning to `CCN(CC)CCOc1nc2ccccc2c2c1-c1ccc(OC)cc1C2=O`, the GI50 was 0.613 µM in [1]; 1.44 µM in experiment [2]; 0.395 µM in [3]; 0.282 µM in experiment [4]; 0.642 µM in [5]; 2.51 µM in [6]. The GI50 in experiment [7] is 0.881 µM; in [8] it was 0.628 µM; in experiment [9], 0.317 µM; in experiment [10] it was 2.14 µM. The TGI in [1] turned out to be 2.4 µM; in [2] it was 23.3 µM; in [3] it was 1.58 µM; in [4], 1.58 µM; in experiment [5], 2.15 µM; in experiment [6] it was 8.8 µM. In addition, the concentration for total growth inhibition (TGI) was 2.36 µM in experiment [7], 1.97 µM in experiment [8], 1.3 µM in experiment [9] and 4.36 µM in [10].

Take `Cn1nc(C(F)(F)F)cc1-c1cc(Cl)c(OCc2ccc(Cl)cc2)c(-c2ccc(Cl)c(C(F)(F)F)c2)c1O`: the GI50 is 0.731 µM in experiment [1]; 0.709 µM in experiment [2]; 1.38 µM in experiment [3]; 1.38 µM in [4]; 1.13 µM in experiment [5]; 0.435 µM in experiment [6]. Besides, the GI50 in experiment [7] is 1.42 µM; in experiment [8] it was 1.06 µM; in experiment [9], 0.852 µM; in experiment [10], 0.919 µM. Also, the TGI in experiment [1] came out at 5.09 µM; in experiment [2], 5.09 µM; in experiment [3], 5.07 µM; in [4] it was 5.38 µM; in experiment [5], 6.12 µM; in [6], 2.96 µM. For the same compound, the total growth inhibition concentration (TGI) was determined as 4.18 µM in experiment [7], 2.57 µM in [8], 2.21 µM in experiment [9] and 2.34 µM in [10].

With `Cc1cc2nc3c(C#N)c(C)c(CCCl)c(Cl)n3c2cc1C`, the total growth inhibition concentration (TGI) in experiment [1] was over 100 µM; in experiment [2], 12.4 µM; in [3], 14.4 µM; in experiment [4], 5.79 µM; in [5], 3.56 µM; in experiment [6] it was 8.9 µM. Further, the TGI in experiment [7] is 4.92 µM; in experiment [8], 9.28 µM; in experiment [9], over 36.6 µM; in [10] it was 3.99 µM.

On to `CCC(=O)NC1=C(Cl)C(=O)C(NC(=O)CC)=C(Cl)C1=O`, for which the GI50 in experiment [1] was 5.86 µM; in experiment [2] it was 8.5 µM; in experiment [3] it was over 43.9 µM; in experiment [4], 5.77 µM; in [5] it was 5.14 µM; in experiment [6], 5.51 µM. Also, the GI50 in experiment [7] was 18.9 µM; in [8] it was 5.17 µM; in experiment [9], over 45.7 µM; in experiment [10], 20.6 µM. In addition, the TGI was 10.7 µM in [1]; 21 µM in [2]; over 57.8 µM in experiment [3]; 11 µM in [4]; 9.56 µM in [5]; 14.2 µM in [6]. For the same compound, the concentration for total growth inhibition (TGI) in experiment [7] is 33.8 µM; in [8] it was 10.1 µM; in [9], over 63.3 µM; in experiment [10], 39.5 µM.

For `Cc1ccc(NC(=O)COc2ccc(Cl)cc2)cc1Cl`, the TGI in experiment [1], in [2], in experiment [3], in [4], in experiment [5] and in experiment [6] was over 100 µM in each case. For the same compound, the TGI in experiment [7], in experiment [8], in experiment [9] and in experiment [10] was over 100 µM each time.

Take `CCN1CCN(c2ccc(NC(=O)Nc3nc4ccc(-c5ccccc5OC)cc4s3)cc2)CC1`: the GI50 was 1.75 µM in experiment [1]; 1.79 µM in [2]; 1.75 µM in experiment [3]; 1.94 µM in experiment [4]; 1.64 µM in experiment [5]; 1.58 µM in experiment [6]. The GI50 in experiment [7] is 1.71 µM; in [8], 1.71 µM; in [9], 1.77 µM; in experiment [10] it was 1.94 µM. The TGI stood at 3.5 µM in [1]; 3.47 µM in experiment [2]; 3.33 µM in experiment [3]; 3.55 µM in experiment [4]; 3.11 µM in [5]; 3.61 µM in [6]. Further, the TGI is 3.14 µM in experiment [7], 3.34 µM in experiment [8], 3.27 µM in [9] and 3.61 µM in experiment [10].

On to `O=C1/C=C/[C@@H](O)[C@@H]2C[C@@H](O)C[C@H]2/C=C/CCC[C@H](CCO)O1`, for which the concentration for 50% growth inhibition (GI50) in [1] was 0.211 µM; in experiment [2] it was 0.367 µM; in [3], 0.0584 µM; in experiment [4], 0.216 µM; in [5], 0.193 µM; in experiment [6], 0.239 µM. Moreover, the GI50 is 0.254 µM in [7], 0.0951 µM in [8], 0.382 µM in experiment [9] and 0.244 µM in [10]. Further, the TGI is 0.604 µM in experiment [1]; over 100 µM in experiment [2]; 0.268 µM in experiment [3]; 0.646 µM in experiment [4]; 0.5 µM in experiment [5]; 0.804 µM in [6]. In addition, the TGI in [7] was over 100 µM; in [8], 0.529 µM; in [9], over 100 µM; in experiment [10], 0.734 µM.

For `CN1CCN(Cc2ccc(NC(=O)c3cncc(C#Cc4ccc(N)nc4)c3)cc2C(F)(F)F)CC1`, the GI50 was 0.774 µM in experiment [1]; 1.58 µM in [2]; 0.0227 µM in experiment [3]; 0.893 µM in [4]; 1.72 µM in [5]; 1.35 µM in experiment [6]. Further, the GI50 is 1.09 µM in [7], 0.535 µM in experiment [8], 0.988 µM in experiment [9] and 0.363 µM in [10]. Moreover, the TGI stood at 6.2 µM in [1]; 8.3 µM in [2]; 5.3 µM in [3]; 3.37 µM in experiment [4]; 7.88 µM in [5]; 7.14 µM in experiment [6]. Moreover, the TGI in experiment [7] worked out at 5.68 µM; in experiment [8], 1.46 µM; in experiment [9] it was 5.86 µM; in experiment [10], 1.36 µM.

As to `Cc1ccc2ccccc2c1CSc1nc(N)nc2c1ncn2CC(C)C`, the total growth inhibition concentration (TGI) in experiment [1] was 96.9 µM; in experiment [2], over 89.9 µM; in experiment [3], over 100 µM; in experiment [4] it was over 100 µM; in experiment [5] it was over 100 µM; in [6], over 47.8 µM. The TGI was over 84.4 µM in experiment [7], over 62.2 µM in [8], over 96.2 µM in [9] and over 73.9 µM in experiment [10].
